Reference: BindingDB's records for patent US20250129104 (Biosplice Therapeutics, 2025)

The compounds below were run against Dual specificity tyrosine-phosphorylation-regulated kinase 1A (Homo sapiens, UniProt Q13627) (assay: DYRK1A Kinase Assay).
Experimental: Each compound was dissolved in DMSO as a 10 mM stock and used to prepare compound source plates. Serial dilution (1:3, 11-point dose-response curves from 10 μM to 0.00016 μM) and compound transfer was performed using the ECHO 550 (Labcyte, Sunnyvale, CA) into 1536-well black-walled round bottom plates (Corning).The DYRK1A kinase assay was run using the Ser/Thr 18 peptide Z-lyte assay kit according to manufacturer's instructions (Life Technologies—a Division of Thermo-Fisher). This is a non-radioactive assay using fluorescence resonance energy transfer (FRET) between coumarin and fluorescein to detect kinase activity which is represented as a ratio of coumarin emission/fluorescein emission.Briefly, recombinant DYRK1A kinase, ATP and Ser/Thr peptide 18 were prepared in 1× Kinase buffer to final concentrations of 0.25 μg/mL, 15 μM, and 4 μM respectively. The mixture was allowed to incubate with the representative compounds for one hour at room temperature. All reactions were performed in duplicate. Unphosphorylated (“0% Control”) and phosphorylated (“100% control”) forms of Ser/Thr 18 served as control reactions. Additionally, an 11-point dose-response curve of Staurosporine (1 uM top) was run to serve as a positive compound control.After incubation, Development Reagent A was diluted in Development Buffer then added to the reaction and allowed to further incubate for one hour at room temperature. The plate was read at Ex 400 Em 455 to detect the coumarin signal and Ex 400 Em 520 to measure the signal (EnVision Multilabel Plate Reader, PerkinElmer).

| SMILES | EC50 [nM] |
| --- | --- |
| COc1nc(N[C@H](C)C(F)(F)F)c2c(-c3ccc4nc(C)n(CC(F)F)c4n3)c[nH]c2n1 [US20250129104, Compound 2817] | 5440 |
| COc1nc(N[C@H]2CC[C@@](C)(O)CC2)nc2[nH]cc(-c3ccc4ncnn4c3)c12 [US20250129104, Compound 3053] | 1.4 |
| C[C@]1(O)CC[C@H](Nc2ncc3c(-c4ccn5nccc5c4)c[nH]c3n2)CC1 [US20250129104, Compound 2238] | 35.2 |
